Experimental data as given in US20020111314A1, “Novel stimulation of gene expression and protein synthesis of heat shock protein 72/73 (Hsp 70)” (The Trustees of Columbia University, priority 1995, published 2002).
Entries after “also recorded” stand apart in the source; their conditions may differ. Square brackets hold non-standard residues; d marks the D form. Peptide text beside a SMILES is read from it. Nle = CCCC[C@H](N)C(=O)O

Key:
[1] = test system: Hsp90, Hsp60, Hsp25, Hsp27, Hsp86, Hsp104, Bip and albumin; assay: Biosynthesis of other Hsp family members and related proteins in HepG2 cells (SDS-PAGE, immunoprecipitation); type: cell-based, human
Protocol: FIGS. 2A-2B: Effects of ALLN on Hsp25, Hsp60, Hsp90 and Bip biosynthesis. HepG2 cells were pre-treated and radiolabeled with/without ALLN for 4 hours as described in FIG. 1. Cell lysates were denatured and aliquoted for immunoprecipitation with anti-Hsp25, anti-Hsp60, anti-Hsp90, or anti-Bip antibodies respectively (1 μg/ml). Because the anti-Hsp90 antibody is of rat source, rabbit anti-rat IgG antibody was added after the first incubation and the incubation was extended for another 1 hour at 4° C. before collection with protein A-Sepharose. Immunoprecipitates were aliquoted for scintillation counting and plotted. Each value is presented as means±SD from three individual experiments.
FIGS. 7A-7B: Effects of ALLN on the biosynthesis of other members of Hsp family and related proteins. HepG2cells were pre-treated and radiolabeled with or without ALLN for 4 hours as described in FIG. 1. […]
HepG2 cells were preincubated for 4 hours in serum-free MEM and then radiolabeled with ^3H-Leucine (150 μCi/ml) in a serum-free, leucine-free medium. […] Cell lysates containing equal amounts of trichloroacetic acid (TCA)-insoluble radioactivity were used for immunoprecipitations by incubating with individual monoclonal antibody (1 μg/ml) for 2.5 hours at 4° C. […]

hsp70, i.e. hsp72, mRNA = assay: Northern blot of hsp70 (hsp72) mRNA in HepG2 cells; type: cell-based, human; details: ALLN 40 μg/ml, 4 hours at 37° C.
Protocol: After 4 hours treatment at 37° C., cells were harvested. (B). […] The total RNA was prepared, and equal amounts of the samples were loaded and run on a 1% formaldehyde-agarose gel, blotted onto a nylon membrane, and subsequently hybridized with specific synthetic oligonucleotide probes for hsp70 mRNA as described under Experimental Details. The position of 28S and 18S rRNA are shown for reference.
Equal amounts of tRNA samples (10 μg) were size-fractionated on a 1% agarose-formaldehyde gel according to the methods described (Maniatis, et al., 1982) and transferred to a piece of QIAGEN plus nylon membrane. To determine loading and transfer efficiency, RNA was stained with ethidium bromide before and after transfer. The membrane was baked for 30 min. at 80° C. in vacuo (a vacuum) followed by UV cross-linking. It was then incubated for 4 hours at 65° C. in a prehybridization mixture containing 10% dextran sulfate, 1% SDS, 1M sodium chloride, 50 mM Tris-HCl (pH 7.5) and 100 μg/ml denatured salmon sperm DNA. […] The membrane was then washed four times with 2×SSC, 0.1% SDS at room temperature, one time at 65° C. for 30 min., and one time at room temperature again for 5 min., and finally rinsed with 2×SSC at room temperature.

In the case of `CCCC[C@@H](C=O)NC(=O)[C@H](CC(C)C)NC(=O)[C@H](CC(C)C)NC(C)=O` [ALLN, N-acetyl-leucyl-leucyl-norleucinal] (Ac-Leu-Leu-[Nle]-aldehyde), the “effect on Hsp90, Hsp60, Hsp25, Hsp27, Hsp86, Hsp104, Bip or albumin levels” value ([1]; ALLN 4 hours) was “no effects; also recorded: only Hsp70 was induced”, the “level of a protein of about 80-90 kDa (whole-cell protein pattern, FIG. 2A)” value ([1]; ALLN-treated vs control) was “also increased but not as significantly as Hsp70” and the “amount of hsp70, i.e. hsp72, mRNA” value (hsp70, i.e. hsp72, mRNA) was “increased dramatically”.
